Reference: US20060247321A1, “Abnormal Cannabidiols as agents useful in combination therapy for lowering intraocular pressure” (priority 2005, published 2006)

Assays:
Format in all cases: in vivo
[1] = test system: Laser-induced unilaterally ocular hypertensive Cynomolgus monkeys; experiment: Intraocular pressure by applanation pneumatonometry in conscious monkeys; settings: 0.1%, topical to one eye, once daily for 4 days, vehicle in fellow eye
Experimental: (§1) Intraocular pressure was measured by applanation pneumatonometry in conscious animals. The test compound was administered topically to one eye while vehicle was given to the fellow eye in a masked fashion. Ocular normotensive Beagle dogs (males, females) were dosed once daily for five days. Laser-induced unilaterally ocular hypertensive Cynomolgus monkeys (females) were dosed once daily for 4 days. Student's paired t-test was used for statistical comparisons. Differences were considered statistically significant if the P-value is less than 0.05.

[2] = test system: Ocular normotensive Beagle dogs; experiment: Intraocular pressure by applanation pneumatonometry in conscious dogs; settings: 0.1%, topical to one eye, once daily for five days, vehicle in fellow eye
Experimental: as §1

[3] = test system: ocular normotensive nonhuman primates (cynomolgus monkeys); experiment: Outflow facility of monkeys treated with abnormal cannabidiol; settings: 0.1%
From the text: (§2) Consequently, the intraocular pressure lowering effects of abnormal cannabidiol is anticipated to predominantly involve reduction of aqueous humor formation in humans and nonhuman primates.

[4] = test system: ocular normotensive nonhuman primates (cynomolgus monkeys); experiment: Uveoscleral outflow of monkeys treated with abnormal cannabidiol; settings: 0.1%
From the text: as §2

[5] = topically once-daily for 5 days

## Abnormal Cannabidiol
[1]
  effect on Monkey Intraocular Pressure versus time: lowers IOP
[2]
  effect on Dog Intraocular Pressure versus time: lowers IOP
[3]; topical once-daily for 5 days vs vehicle, mean ± sem, n = 6 animals
  Outflow Facility, Ratio, Treated:Control, Treatment: 0.93 ± 0.09
[3]; topical once-daily for 5 days, mean ± sem, n = 6 animals
  Outflow Facility, Treated Eye, Treatment: 0.57 ± 0.08 ul/min/mm Hg
[3]; [5]
  effect on total outflow facility compared to baseline and/or contralateral vehicle-treated control eyes: no significant effects
[4]; topical once-daily for 5 days vs vehicle, mean ± sem, n = 5 animals
  Uveosclearal Outflow, Ratio, Treated:Control: 0.78 ± 0.05
[4]; topical once-daily for 5 days, mean ± sem, n = 5 animals
  Uveosclearal Outflow, Treated Eye: 0.58 ± 0.17 µL/min
[4]; [5]
  effect on uveoscleral outflow compared to baseline and/or contralateral vehicle-treated control eyes: no significant effects
